Test results reported in PMC8048981, “Cys–Cys and Cys–Lys Stapling of Unprotected Peptides Enabled by Hypervalent Iodine Reagents” (Angewandte Chemie (International Ed. in English), 2021).
Where two headings read alike, the source gives them in different places.

Experiments:
[1] = the molecule shown is the open-chain precursor, scale: % relative absorbance at 210 nm vs linear peptide standard
[2] = Two-component Cys-Cys stapling with bis-hypervalent iodine reagents 8c-8e (3.0 equiv), DIPEA (2.5 equiv), overnight, preparative RP-HPLC; settings: the molecule shown is the open-chain precursor, DMF, 2.0 mM, 37.0 °C
[3] = Two-component Cys-Lys stapling: Cys S-alkynylation by EBX-pentafluorophenyl ester reagents 9a-9d (1.1 equiv), then intramolecular Lys aminolysis of the PFP ester; DIPEA (2.5 equiv); settings: the molecule shown is the open-chain precursor, DMF, 1.0 mM, 37.0 °C, scale: % relative absorbance at 210 nm vs linear peptide standard
[4] = Two-component Cys-Lys stapling with EBX-PFP ester reagents 9a/9b (1.1 equiv), DIPEA (2.5 equiv), preparative RP-HPLC; settings: the molecule shown is the open-chain precursor, DMF, 1.0 mM, 37.0 °C
[5] = 33-membered ring, DMF, 1.0 mM, 37.0 °C, 4.0 h
[6] = 24-membered ring, DMF, 1.0 mM, 37.0 °C, 4.0 h
[7] = 22-membered ring, DMF, 1.0 mM, 37.0 °C, 4.0 h

Compound “Ac-QSQQTFC(S-C≡C-C6H4-3-C≡C-I[bis-CF3 benziodoxole])NLWRLLCQN-NH2” has a ring closure, conversion by HPLC [1, 5] of 13.

For “Ac-ENPEC(S-C≡C-Si(iPr)2-O-Si(iPr)2-C≡C-I[bis-CF3 benziodoxole])ILDCHVQRVM-NH2”, the ring closure, conversion by HPLC [1, 6] was 51 and the ring closure, isolated yield (% isolated yield) ([2]; 24-membered ring) was 29.

With “Ac-YGGEAARK(ivDde)AC(S-C≡C-C6H4-4-CO-OPfp)AREKAARE-NH2” the ring closure, conversion by HPLC ([3]; 27-membered ring, 0.5 h) was 117.

With “Ac-YGGEAARKAC(S-C≡C-C6H4-4-CO-OPfp)AREKAARE-NH2” the ring closure, conversion by HPLC ([3]; 27-membered ring, 0.5 h) was 92.

With “Ac-YGGEAARKAC(S-C≡C-C6H4-3-CO-OPfp)AREKAARE-NH2” the ring closure, conversion by HPLC ([3]; 26-membered ring, 0.5 h) was 74.

“Ac-YGGEAAREAC(S-C≡C-C6H4-2-CO-OPfp)AREKAARE-NH2” showed a ring closure, conversion by HPLC ([3]; 25-membered ring, 0.5 h) of 118.

With “Ac-YGGEAAREAC(S-C≡C-Si(iPr)2-C≡C-I[bis-CF3 benziodoxole])ARECAARE-NH2” the ring closure, conversion by HPLC ([1]; 22-membered ring) was 72 and the ring closure, isolated yield (% isolated yield) ([2]; 22-membered ring) was 48.

For “Ac-ENPEC(S-C≡C-C6H4-3-CO-OPfp)ILDKHVQRVM-NH2”, the ring closure, conversion by HPLC ([3]; 26-membered ring, 0.5 h) was 34 and the ring closure, isolated yield (% isolated yield) ([4]; 26-membered ring) was 7.

In the case of “Ac-QSQQTFC(S-C≡C-C6H4-4-CO-OPfp)NLWRLLKQN-NH2”, the ring closure, conversion by HPLC ([3]; 36-membered ring, 0.5 h) is reported as 117 and the ring closure, isolated yield (% isolated yield) ([4]; 36-membered ring) is reported as 87.

Compound `CSCC[C@H](NC(=O)[C@H](CC(N)=O)NC(=O)[C@H](CCCCN)NC(=O)[C@H](Cc1ccc(O)cc1)NC(=O)[C@H](CS)NC(=O)[C@H](CCC(=O)O)NC(=O)[C@H](Cc1c[nH]cn1)NC(=O)[C@H](Cc1c[nH]c2ccccc12)NC(=O)[C@H](CSC#C[Si](O[Si](C#CI1OC(C(F)(F)F)(C(F)(F)F)c2ccccc21)(C(C)C)C(C)C)(C(C)C)C(C)C)NC(=O)[C@H](CCCNC(=N)N)NC(=O)[C@H](CCC(=O)O)NC(=O)[C@@H](N)CO)C(N)=O` has a ring closure, conversion by HPLC [1, 6] of 15.

“Ac-QSQQTFC(S-C≡C-C6H4-2-CO-OPfp)NLWRLLKQN-NH2” gave a ring closure, conversion by HPLC ([3]; 34-membered ring, 0.5 h) of 123.

With “Ac-ENPEC(S-C≡C-Si(cHex)2-C≡C-I[bis-CF3 benziodoxole])ILDCHVQRVM-NH2” the ring closure, conversion by HPLC [1, 7] was 89.

“Ac-ENPEC(S-C≡C-C6H4-4-C≡C-I[bis-CF3 benziodoxole])ILDCHVQRVM-NH2” showed a ring closure, conversion by HPLC ([1]; 25-membered ring) of 27.

With `CSCC[C@H](NC(=O)[C@H](CC(N)=O)NC(=O)[C@H](Cc1ccc(O)cc1)NC(=O)[C@H](CCCCN)NC(=O)[C@H](CCC(=O)O)NC(=O)[C@H](Cc1c[nH]cn1)NC(=O)[C@H](Cc1c[nH]c2ccccc12)NC(=O)[C@H](CSC#Cc1ccc(C(=O)Oc2c(F)c(F)c(F)c(F)c2F)cc1)NC(=O)[C@H](CCCNC(=N)N)NC(=O)[C@H](CCC(=O)O)NC(=O)[C@@H](N)CO)C(N)=O` [H-SERC(S-C≡C-C6H4-4-CO-OPfp)WHEKYNM-NH2] the ring closure, conversion by HPLC ([3]; 27-membered ring, 0.5 h) was 63.

In the case of “Ac-YGGEAARK(ivDde)AC(S-C≡C-C6H4-3-CO-OPfp)AREKAARE-NH2”, the ring closure, conversion by HPLC ([3]; 26-membered ring, 0.5 h) is reported as 72.

Compound “Ac-ENPEC(S-C≡C-Si(iPr)2-C≡C-I[bis-CF3 benziodoxole])ILDCHVQRVM-NH2” has a ring closure, conversion by HPLC [1, 7] of 98 and a ring closure, isolated yield (% isolated yield) ([2]; 22-membered ring) of 46.

“Ac-ENPEC(S-C≡C-C6H4-4-CO-OPfp)ILDKHVQRVM-NH2” gave a ring closure, conversion by HPLC ([3]; 27-membered ring, 0.5 h) of 62 and a ring closure, isolated yield (% isolated yield) ([4]; 27-membered ring) of 52.

For “Ac-YGGEAAREAC(S-C≡C-C6H4-4-CO-OPfp)AREKAARE-NH2”, the ring closure, conversion by HPLC ([3]; 27-membered ring, 0.5 h) was 114 and the ring closure, isolated yield (% isolated yield) ([4]; 27-membered ring) was 65.

“Ac-YGGEKAREAC(S-C≡C-C6H4-4-CO-OPfp)AREKAARE-NH2” gave a ring closure, conversion by HPLC ([3]; 27-membered ring, 0.5 h) of 91.

With “Ac-ENPEC(S-C≡C-C6H4-3-C≡C-I[bis-CF3 benziodoxole])ILDCHVQRVM-NH2” the ring closure, conversion by HPLC [1, 6] was 13.

Work on “Ac-YGGEAAREAC(S-C≡C-C6H4-4-CO-OPfp)AREKAAREK-NH2” yielded a ring closure, conversion by HPLC ([3]; 27-membered ring, 0.5 h) of 95.

`C[C@H](NC(=O)[C@H](CC(=O)O)NC(=O)[C@H](Cc1c[nH]cn1)NC(=O)[C@H](CCCCN)NC(=O)[C@H](Cc1ccc(O)cc1)NC(=O)[C@H](Cc1ccccc1)NC(=O)[C@H](CCC(N)=O)NC(=O)[C@H](CO)NC(=O)[C@@H](N)CCCNC(=N)N)C(=O)NCC(=O)N[C@@H](CSC#Cc1cccc(C(=O)Oc2c(F)c(F)c(F)c(F)c2F)c1)C(=O)NCC(N)=O` [H-RSQFYKHDAGC(S-C≡C-C6H4-3-CO-OPfp)G-NH2] gave a ring closure, conversion by HPLC ([3]; 29-membered ring, 0.5 h) of 22.

For “Ac-QSQQTFC(S-C≡C-C6H4-4-C≡C-I[bis-CF3 benziodoxole])NLWRLLCQN-NH2”, the ring closure, conversion by HPLC ([1]; 34-membered ring, DMF, 1.0 mM, 37.0 °C, 4.0 h) was 46.

With `CSCC[C@H](NC(=O)[C@H](CC(N)=O)NC(=O)[C@H](CCCCN)NC(=O)[C@H](Cc1ccc(O)cc1)NC(=O)[C@H](CS)NC(=O)[C@H](CCC(=O)O)NC(=O)[C@H](Cc1c[nH]cn1)NC(=O)[C@H](Cc1c[nH]c2ccccc12)NC(=O)[C@H](CSC#C[Si](C#CI1OC(C(F)(F)F)(C(F)(F)F)c2ccccc21)(C(C)C)C(C)C)NC(=O)[C@H](CCCNC(=N)N)NC(=O)[C@H](CCC(=O)O)NC(=O)[C@@H](N)CO)C(N)=O` the ring closure, conversion by HPLC [1, 7] was 79.

Work on `CSCC[C@H](NC(=O)[C@H](CC(N)=O)NC(=O)[C@H](Cc1ccc(O)cc1)NC(=O)[C@H](CCCCN)NC(=O)[C@H](CCC(=O)O)NC(=O)[C@H](Cc1c[nH]cn1)NC(=O)[C@H](Cc1c[nH]c2ccccc12)NC(=O)[C@H](CSC#Cc1cccc(C(=O)Oc2c(F)c(F)c(F)c(F)c2F)c1)NC(=O)[C@H](CCCNC(=N)N)NC(=O)[C@H](CCC(=O)O)NC(=O)[C@@H](N)CO)C(N)=O` [H-SERC(S-C≡C-C6H4-3-CO-OPfp)WHEKYNM-NH2] yielded a ring closure, conversion by HPLC ([3]; 26-membered ring, 0.5 h) of 20.

In the case of “Ac-QSQQTFC(S-C≡C-Si(cHex)2-C≡C-I[bis-CF3 benziodoxole])NLWRLLCQN-NH2”, the ring closure, isolated yield (% isolated yield) ([2]; 31-membered ring) is reported as 22.

Work on “Ac-QSQQTFC(S-C≡C-Si(iPr)2-O-Si(iPr)2-C≡C-I[bis-CF3 benziodoxole])NLWRLLCQN-NH2” yielded a ring closure, conversion by HPLC [1, 5] of 30 and a ring closure, isolated yield (% isolated yield) ([2]; 33-membered ring) of 17.

With “Ac-ENPEC(S-C≡C-C6H4-2-CO-OPfp)ILDKHVQRVM-NH2” the ring closure, conversion by HPLC ([3]; 25-membered ring, 0.5 h) was 101.

“Ac-YGGEAAREAC(S-C≡C-Si(iPr)2-O-Si(iPr)2-C≡C-I[bis-CF3 benziodoxole])ARECAARE-NH2” showed a ring closure, conversion by HPLC ([1]; 24-membered ring) of 9 and a ring closure, isolated yield (% isolated yield) ([2]; 24-membered ring) of 19.

For “Ac-QSQQTFC(S-C≡C-C6H4-3-CO-OPfp)NLWRLLKQN-NH2”, the ring closure, conversion by HPLC ([3]; 35-membered ring, 0.5 h) was 110 and the ring closure, isolated yield (% isolated yield) ([4]; 35-membered ring) was 55.

For `C[C@H](NC(=O)[C@H](CC(=O)O)NC(=O)[C@H](Cc1c[nH]cn1)NC(=O)[C@H](CCCCN)NC(=O)[C@H](Cc1ccc(O)cc1)NC(=O)[C@H](Cc1ccccc1)NC(=O)[C@H](CCC(N)=O)NC(=O)[C@H](CO)NC(=O)[C@@H](N)CCCNC(=N)N)C(=O)NCC(=O)N[C@@H](CSC#Cc1ccc(C(=O)Oc2c(F)c(F)c(F)c(F)c2F)cc1)C(=O)NCC(N)=O` [H-RSQFYKHDAGC(S-C≡C-C6H4-4-CO-OPfp)G-NH2], the ring closure, conversion by HPLC ([3]; 30-membered ring, 0.5 h) was 54 and the ring closure, conversion by HPLC ([3]; 41-membered ring, 0.5 h) was 18.

Compound “Ac-YGGEAAREAC(S-C≡C-Si(cHex)2-C≡C-I[bis-CF3 benziodoxole])ARECAARE-NH2” has a ring closure, conversion by HPLC ([1]; 22-membered ring) of 69.

Work on “Ac-QSQQTFC(S-C≡C-Si(iPr)2-C≡C-I[bis-CF3 benziodoxole])NLWRLLCQN-NH2” yielded a ring closure, conversion by HPLC ([1]; 31-membered ring, DMF, 1.0 mM, 37.0 °C, 4.0 h) of 30 and a ring closure, isolated yield (% isolated yield) ([2]; 31-membered ring) of 13.

“Ac-YGGEAAREAC(S-C≡C-C6H4-3-CO-OPfp)AREKAARE-NH2” showed a ring closure, conversion by HPLC ([3]; 26-membered ring, 0.5 h) of 77 and a ring closure, isolated yield (% isolated yield) ([4]; 26-membered ring) of 44.

Compound “5(6)-FAM-QSQQTFC(S-C≡C-C6H4-4-CO-OPfp)NLWRLLKQN-NH2” has a ring closure, isolated yield (% isolated yield) ([4]; 36-membered ring) of 76.

For “Ac-YGGEAAREAC(S-C≡C-C6H3-3,5-(CO-OPfp)2)AREKAARE-NH2”, the ring closure, conversion by HPLC ([3]; 26-membered ring, 0.25 h) was 70.
